The subject of this series is PHH (TF-HU8373) + THP-1. Nature of the series: Midazolam metabolism (1′-OH MDZ formation) in PhysioMimix LC-12, PHH + THP-1 co-culture. Type of series: in vitro ADME, human. The note with it: 5 µM MDZ. On the procedure: Metabolic capacity was assessed across the various cell type conditions, including both types of hepatocytes. Midazolam (MDZ) was tested as a representative substrate for CYP3A4 [43]. Cells were treated with MDZ for up to 24 h on different days of culture, with sampling at 2, 6, and 24 h after treatment. The collected media was processed using high-performance liquid chromatography tandem mass spectrometry (HPLC-MS/MS) to determine the concentration of both the remaining parent compound (MDZ) and metabolites formed (1′-OH MDZ and 1′-OH MDZ glucuronide). We also tested the metabolism of equimolar mixtures (1 or 5 µM) of 20 pesticides that were previously used to evaluate the metabolic competence of different in vitro liver models. Cells were treated on day 6 of culture, and media were collected for analysis 48 h thereafter. Samples were analyzed using either gas chromatography (GC)-MS/MS or HPLC-MS/MS to determine whether parent molecule concentrations diminished, consistent with the metabolic activity of the cells.
The day when PHHs were seeded into PhysioMimix LC12 plates was defined as day 0 (Figure 1). PHHs were cultured in the PhysioMimix LC12 following the manufacturer’s protocols. PHHs were thawed into CHRM (CM7000, Thermo Fisher), centrifuged at 100× g for 10 min, resuspended in plating media, and then seeded into the PhysioMimix LC12 scaffold at a seeding density of 475,000–600,000 cells/chip. The flow was initiated at 1 µL/s.
For co-culture conditions, THP-1 monocytes and HMEC-1 endothelial cells were seeded either on day 0 or 1 at a seeding density of 60,000–160,000 cells/chip or 60,000 cells/chip, respectively. Primary KCs, HSCs, and LSECs were seeded either on day 0 or 1 at a seeding density of 100,000 cells/chip, 35,000 cells/chip, and 70,000–140,000 cells/chip, respectively. Cell seeding ratios were determined based on previous experiments or reports of the physiological cell ratios in the human liver. Media were collected and exchanged every 1–3 days by aspirating and replacing media from the media reservoir (1.8 mL/chip).
For evaluation of MDZ metabolism, cells were exposed on days 4–16 of culture to 5 µM MDZ (dissolved in methanol for the final concentration of 0.16% v/v). After drug addition, media were collected every 2, 6, and 24 h. After 24 h, the drug treatment media were replaced with fresh maintenance media. For the experiment with pesticide mixtures, we selected chemicals from the Agency for Toxic Substances and Disease Registry Substance Priority List, which contains compounds that are commonly detected at Superfund sites and are known to be hazardous to human health. A molar-equivalent mixture was created by combining all 20 pesticides and diluting them to a final concentration of 1 or 5 μM each in dimethyl sulfoxide (DMSO, final concentration 0.5% v/v). Media was collected 48 h after treatment for the analyses detailed below. For evaluation of immune-mediated toxicity with Trovafloxacin and LPS treatment, PHHs + THP-1 monocytes or PHHs + KCs were exposed on day 6 of culture to 25 or 100 µM of Trovafloxacin, with or without LPS. After 48 h, the drug treatment media were collected for biochemical assays detailed below.
After treatment with MDZ or pesticide mixtures (Supplemental Table S3), 50 µL media samples were mixed with 100 µL of 0.1 or 1 µM internal standard (Caffeine-13C3, C-082, Millipore Sigma; Supplemental Table S3) solution in acetonitrile on ice, respectively. Samples were vortexed and centrifuged (12,000× g, 10 min, room temperature) to allow for protein precipitation. The supernatant was collected from each sample, dried under vacuum, and reconstituted in 50 µL aqueous mobile phase. The reconstituted samples were transferred to glass autosampler vials with 200 µL inserts and stored at −20 °C prior to HPLC-MS/MS analysis. […]

[1] abbreviates: PhysioMimix LC-12, PHH + THP-1, day 6, incubation 2 h.
Where [2] appears, read: PhysioMimix LC-12, PHH + THP-1, day 6, incubation 24 h.
Where [3] appears, read: PhysioMimix LC-12, PHH + THP-1, day 12, incubation 24 h.

Molecules are shown by their SMILES.

Take `OCc1ncc2n1-c1ccc(Cl)cc1C(c1ccccc1F)=NC2` [1′-OH-midazolam, 1-hydroxymidazolam]: the “1′-OH MDZ Formed, Mean ± S.D.” value was 2.54 ± 1.64 pmol/min/1 M Hep under setting [1], 0.836 ± 0.556 pmol/min/1 M Hep under setting [2] and 0.971 ± 0.910 pmol/min/1 M Hep under setting [3]. The “1′-OH MDZ Formed, Median” value is, setting by setting: under setting [1], 2.11 pmol/min/1 M Hep; under setting [2], 0.997 pmol/min/1 M Hep; under setting [3], 0.933 pmol/min/1 M Hep.

The values above are taken from PMC10603899, “Reproducibility and Robustness of a Liver Microphysiological System PhysioMimix LC12 under Varying Culture Conditions and Cell Type Combinations” (Bioengineering, 2023).
